# Reference: PMC5131915, “Platinum(II) Iodido Complexes of 7-Azaindoles with Significant Antiproliferative Effects: An Old Story Revisited with Unexpected Outcomes” (PLoS ONE, 2016)
# Where two headings read alike, the source gives them in different places.
# Columns and labels:
# HOS osteosarcoma cells = assay: In vitro cytotoxicity testing (MTT assay), HOS; type: cell-based, human; details: for IC50: 24 h drug exposure, no recovery, MTT, read-out: IC50±SD, HOS
# Procedure: (§1) A2780 ovarian carcinoma, A2780R cisplatin-resistant ovarian carcinoma, HOS osteosarcoma, G361 malignant melanoma, MCF7 breast carcinoma, A549 lung carcinoma, HeLa cervix carcinoma, 22Rv1 prostate carcinoma and Caco-2 colorectal carcinoma human cancer cell lines were purchased from the European Collection of Cell Cultures (ECACC), while the human non-cancerous hepatocytes (Hep) were supplied by Biopredic Intl. The cell lines were cultured, according to the suppliers`instructions, in RPMI-1640 medium supplemented with 10% of fetal calf serum, 1% of 2 mM glutamine, and 1% penicillin/streptomycin. All cell lines were grown as adherent monolayers at 37°C and 5% CO2 in a humidified atmosphere.
# (§2) The cells were seeded to 96-well culture plates, pre-incubated in drug-free media at 37°C for 24 h and treated typically with the 0.01–50.0 μM solutions, prepared from the stock solutions by dilution with medium, for 24 h at 37°C. […] In parallel with compounds 1–8 and the reference drugs, the cells were also treated with vehicle (0.1% DMF in medium; negative control) and Triton X-100 (1%; positive control) to assess the minimal and maximal cell damage, respectively. The MTT assay was used to determine the cell viability; MTT = 3-(4,5-dimethylthiazol-2-yl)-2,5-diphenyltetrazolium bromide. A concentration of the formed dye was evaluated spectrophotometrically at 540 nm (TECAN, Schoeller Instruments LLC).
# (§3) The data were expressed as the percentage of viability, where 100% and 0% represents the treatments with negative and positive controls, respectively. The data from the cancer cells were acquired from three independent experiments (conducted in triplicate) using cells from different passages. The resulting IC50 values (μM) were calculated from viability curves and the results are presented as arithmetic mean±SD.
# [1] = system: G361 malignant melanoma cells; assay: In vitro cytotoxicity testing (MTT assay), G361; type: cell-based, human; details: 24 h drug exposure, no recovery, read-out: IC50±SD, G361
# Procedure: as §1, §2, §3
# [2] = system: MCF7 breast carcinoma cells; assay: In vitro cytotoxicity testing (MTT assay), MCF7; type: cell-based, human; details: 24 h drug exposure, no recovery, read-out: IC50±SD, MCF7
# Procedure: as §1, §2, §3
# [3] = system: A549 lung carcinoma cells; assay: In vitro cytotoxicity testing (MTT assay), A549; type: cell-based, human; details: 24 h drug exposure, no recovery, read-out: IC50±SD, A549
# Procedure: as §1, §2, §3
# [4] = system: HeLa cervix carcinoma cells; assay: In vitro cytotoxicity testing (MTT assay), HeLa; type: cell-based, human; details: 24 h drug exposure, no recovery, read-out: IC50±SD, HeLa
# Procedure: as §1, §2, §3
# [5] = system: 22Rv1 prostate carcinoma cells; assay: In vitro cytotoxicity testing (MTT assay), 22Rv1; type: cell-based, human; details: 24 h drug exposure, no recovery, read-out: IC50±SD, 22Rv1
# Procedure: as §1, §2, §3
# [6] = system: A2780 ovarian carcinoma cells; assay: In vitro cytotoxicity testing (MTT assay), A2780; type: cell-based, human
# Procedure: (§4) All cell lines were grown as adherent monolayers at 37°C and 5% CO2 in a humidified atmosphere.
# (§5) The MTT assay was used to determine the cell viability; MTT = 3-(4,5-dimethylthiazol-2-yl)-2,5-diphenyltetrazolium bromide. A concentration of the formed dye was evaluated spectrophotometrically at 540 nm (TECAN, Schoeller Instruments LLC).
# as §3
# [7] = system: A2780R cisplatin-resistant ovarian carcinoma cells; assay: In vitro cytotoxicity testing (MTT assay), A2780R; type: cell-based, human; details: for resistance factor (RF), IC50(A2780R)/IC50(A2780): 24 h IC50 values; for IC50: 24 h drug exposure, no recovery, MTT, read-out: IC50±SD, A2780R
# Procedure: as §4, §5, §3
# [8] = system: Caco-2 colorectal carcinoma cells; assay: In vitro cytotoxicity testing (MTT assay), Caco-2; type: cell-based, human; details: 24 h drug exposure, no recovery, MTT; read-out: IC50±SD, Caco-2
# Procedure: as §4, §5, §3
# [9] = system: human non-cancerous hepatocytes (Hep); assay: In vitro cytotoxicity testing (MTT assay), hepatocytes; type: cell-based; details: 24 h drug exposure, no recovery
# Procedure: as §1, §2, §3
# [10] = system: L1210 mouse lymphocytic leukaemia cells; assay: In vivo antitumour activity testing, L1210 lymphocytic leukaemia model; design: species or system mice; details: dose equimolar to cisplatin 2 mg/kg, i.p.
# Procedure: The experimental animals used for in vivo antitumour testing were female DBA/2 SPF mice obtained from Charles Rivers Laboratories. The animals were housed in the Sealsafe NEXT—IVC Blue Line Housing System (Tecniplast, Italy) to ensure the best possible experimental conditions and eliminate the risk of possible intergroup cross-contamination, and kept in Plexiglas cages at constant temperature (22±1°C) and relative humidity of 55±5% for one-week adaptation period before the start of the experiment. All experimental procedures were performed according to the National Institute of Health (NIH) Guide for the Care and Use of Laboratory Animals. The protocol was approved by the Expert Committee on the Protection of Animals Against Cruelty at the University of Veterinary and Pharmaceutical Sciences Brno (Permit Number: 71/2013). The number of pharmacological interventions was limited to the necessary minimum in order to minimize the suffering of animals, which were observed regularly for the symptoms connected with the tumour progression. […] No animals had to be sacrificed due to the above mentioned criteria of humane treatment and no post-application deaths within the 2 hours after the application were observed during the experiment. […] The animal tissues for the ex vivo experiments and histological evaluations were taken post mortem, in case of surviving animals immediately after they were sacrificed by the lethal dose of carbon dioxide inhalation, immediately followed by the cervical dislocation.
# The animals were monitored several times a day for the signs of tumour progression and distress development.
# p53 = assay: Ex vivo Western blot of tumour tissues, p53; type: in vivo, mice; details: pooled tumour samples
# Procedure: (§6) Frozen tumour samples were homogenized by a bench blender IKA DI25 (IKA-Werke, Germany) in the presence of a lysis buffer [cOmplete Protease Inhibitor Cocktail (Roche, Germany), 50 mM Tris-HCl pH 7.5, 1 mM EGTA, 1 mM EDTA, 1 mM sodium orthovanadate, 50 mM sodium fluoride, 5 mM sodium pyrophosphate, 270 mM sucrose, 0.5% (v/v) Triton X-100]. Subsequently, the blended samples were centrifuged at 9.000 g at 4°C for 15 min. The supernatants were collected and the protein concentration was measured by the Brandford’s method using the Brandford reagent (Amresco, USA) according to the manufacturer’s manual. The measured samples were stored at -80°C for the following experiments.
# (§7) The expression of caspase 3, MCL-1, p53, and β-actin as loading control were evaluated by Western blot analysis and immunodetection. Lysates were mixed with a denaturing loading dye [250 mM Tris-HCl pH 6.8, 5% (v/v) β-mercaptoethanol, 10% (w/v) sodium dodecyl sulfate, 30% (v/v) glycerol, 0.04% (w/v) bromophenol blue], heated for 5 min at 70°C. To eliminate intra-species variability, and to obtain the same amount of proteins from all experimental groups, all samples from one group of animals were pooled together and loaded onto a 15% polyacrylamide denaturing gel. The final protein amount was 50 μg per well. After protein separation in the gel, they were transferred on the Immun-Blot polyvinylidene difluoride membrane 0.2 μm (Bio-Rad, USA). Then, the membrane was blocked by 5% (w/v) BSA in TBST [10 mM Tris-HCl pH 7.5, 150 mM NaCl, 0.1% (v/v) Tween-20]. […] HRP was detected by Clarity Western ECL Substrate (Bio-Rad, USA) using chemiluminescent documentation system Syngene PXi-4 (UK).
# MCL-1L (37 kDa) = assay: Ex vivo Western blot of tumour tissues, MCL-1L; type: in vivo, mice; details: pooled tumour samples
# Procedure: as §6, §7
# [11] = system: caspase 3 (Cas-3), active form p17; assay: Ex vivo Western blot of tumour tissues, cleaved caspase 3; type: in vivo, mice; details: pooled tumour samples
# Procedure: The expression of caspase 3, MCL-1, p53, and β-actin as loading control were evaluated by Western blot analysis and immunodetection. Lysates were mixed with a denaturing loading dye [250 mM Tris-HCl pH 6.8, 5% (v/v) β-mercaptoethanol, 10% (w/v) sodium dodecyl sulfate, 30% (v/v) glycerol, 0.04% (w/v) bromophenol blue], heated for 5 min at 70°C. […] The final protein amount was 50 μg per well. After protein separation in the gel, they were transferred on the Immun-Blot polyvinylidene difluoride membrane 0.2 μm (Bio-Rad, USA). Then, the membrane was blocked by 5% (w/v) BSA in TBST [10 mM Tris-HCl pH 7.5, 150 mM NaCl, 0.1% (v/v) Tween-20]. […] HRP was detected by Clarity Western ECL Substrate (Bio-Rad, USA) using chemiluminescent documentation system Syngene PXi-4 (UK).
# [12] = system: spleen, renal tissue and tumour tissues of L1210 leukaemia-bearing mice; assay: Histological observations (light microscopy, semi-quantitative); details: relative scale 0 to 4
# Text: Randomly selected paraffin block preparations were stained by standard hematoxylin and eosin stain for light microscopic evaluation. Due to high cellularity, the semi-quantitative method was used for the evaluation of necrosis in well-circumcised and diffuse tumour samples and PMN cells infiltration in normal tissues as an indirect sign of toxicity to healthy tissues. The evaluation of necrotic processes and infiltration by PMN cells was semi-quantitative, based on the percentage of necrotic areas and/or infiltrated area in the view-field of at least three different samples.
# [13] = system: cisplatin-sensitive HCT116 colon cancer cell line; design: method as in PMID 26226326; details: cited from earlier work
# [14] = system: cisplatin-resistant HCT116 colon cancer cell line; design: method as in PMID 26226326; details: cited from earlier work
# [15] = 24 h drug exposure, no recovery, MTT, read-out: IC50±SD, A2780
SMILES,IC50 (HOS osteosarcoma cells) [µM],IC50 [1] [µM],IC50 [2] [µM],IC50 [3] [µM],IC50 [4] [µM],IC50 [5] [µM],"IC50 [6, 15] [µM]","resistance factor (RF), IC50(A2780R)/IC50(A2780) [7]",IC50 [7] [µM],IC50 [8] [µM],IC50 [9] [µM],other results
"[I][Pt][I].c1cnc2[nH]ccc2c1.c1cnc2[nH]ccc2c1 [Complex 1, cis-[Pt(aza)2I2]]",0.8 ± 0.4,2.9 ± 0.6,1.7 ± 0.8,12.3 ± 1.1,7 ± 0.6,4.6 ± 1.2,3.5 ± 0.7,0.94,3.3 ± 0.3,3.3 ± 0.2,3.9,
"Clc1c[nH]c2ncccc12.Clc1c[nH]c2ncccc12.[I][Pt][I] [Complex 2, cis-[Pt(3Claza)2I2]]",1.3 ± 0.8,2.3 ± 1,1.5 ± 0.4,6.4 ± 1.4,4.8 ± 0.4,4.8 ± 2.4,3.7 ± 0.4,0.89,3.3 ± 0.5,3.1 ± 0.2,5.9,
"Brc1c[nH]c2ncccc12.Brc1c[nH]c2ncccc12.[I][Pt][I] [Complex 3, cis-[Pt(3Braza)2I2]]",2.2 ± 1.2,3.1 ± 0.2,1.9 ± 0.5,8.8 ± 2.2,4.7 ± 0.8,4.2 ± 1.2,2.8 ± 0.3,1.14,3.2 ± 0.2,3 ± 0.1,3.9,
"Clc1ccnc2[nH]ccc12.Clc1ccnc2[nH]ccc12.[I][Pt][I] [Complex 5, cis-[Pt(4Claza)2I2]]",0.5 ± 0.2,3.2 ± 0.2,1.5 ± 0.5,4.7 ± 0.3,3.8 ± 0.3,4.2 ± 0.1,3.1 ± 0.1,1.10,3.4 ± 0.2,2.4 ± 0.7,4.2,"times more potent than cisplatin (HOS osteosarcoma cells; HOS cell line): ≤ 47 times; IC50 ([6]; 6 h exposure, read-out: IC50, A2780, time-dependent cytotoxicity): 11 ± 2.9 µM; tolerability / signs of toxicity (e.g. weight loss) [10]: well-tolerated; percentage of mean survival time T/C [10]: 100%; mean survival time ± SD ([10]; 10 days after implantation, control 17.4±1.6 days): 17.3 ± 2.3 days; p53 level in tumour tissue (p53): did not affect; MCL-1L level in tumour tissue (MCL-1L (37 kDa)): negligible effect; level of active form of Cas-3 in tumour tissue [11]: has not been observed; Areas of necrosis in tumour tissues [12]: 2 (2 = up to 50%); Infiltration of renal tissues (PMN cells) [12]: 1 (1 = up to 25%); Infiltration of spleen (PMN cells) [12]: 3 (3 = up to 75%)"
"Brc1cnc2[nH]ccc2c1.Brc1cnc2[nH]ccc2c1.[I-].[I-].[Pt+2] [Complex 7, cis-[Pt(5Braza)2I2]]",1.4 ± 1.1,3.4 ± 0.3,1.6 ± 0.8,7.3 ± 1.6,5.4 ± 1.2,5.1 ± 0.8,3.4 ± 0.2,1.03,3.5 ± 0.5,3.6 ± 0.2,3.8,
N.N.[I-].[I-].[Pt+2] [cis-[PtI2(NH3)2]],,,,,,,,,,,,IC50 [13]: 13.4 µM; IC50 [14]: 4.2 µM
